From patent US10730889B2, “Amido spirocyclic amide and sulfonamide derivatives” (Forma TM, LLC, priority 2012, dated 2020)
Read-outs that look alike come from different tables or passages of the source.

Test system: A2780 cells
Assay: In-vitro cell proliferation assay (SRB, 72 hours)
Type: cell-based
Conditions: A2780 cells, 72 hours, SRB, read-out: Cell Proliferation (IC50)
Description: Assay 2: In-Vitro Cell Proliferation Assay
Assay Method. […] The compounds were then further diluted to 10× final concentration in culture media, whereupon 20 μL of each dilution was added to the plated cells with controls (e.g. DMSO and blank) to make a final volume of 200 μL. The final DMSO concentration in each well was 0.1%. The plates were then incubated for 72 hours at 37° C. in a 5% CO2 incubator. The number of viable cells was then assessed using sulforhodamine B (SRB) assay. Cells were fixed at 4° C. for 1 hour with the addition of 50 μL 30% trichloroacetic acid (TCA) to make a final concentration of 6% TCA. The plates were washed four times with H2O and allowed to dry for at least 1 hour, whereupon 100 μL of a 4% SRB in 1% acetic acid solution was added to each well and incubated at room temperature for at least 30 min. The plates were then washed three times with 1% acetic acid, dried, and treated with 100 μL of 10 mM Tris-Base solution. The plates were then read in a microplate reader at an absorbance of 570 nm. Background was generated on a separate plate with media only.
Determination of IC50 Values. First, the signals from the background plate were averaged, then the background was subtracted from the test plates.

SMILES	IC50 (Homo sapiens, A2780, 72 h)	IC50
NC(=O)N1CCC(C(=O)N2CCC3(CC2)CC3CNC(=O)c2cc3ccncc3o2)CC1 (stereo not shown) [Example 78, N-[[6-(1-carbamoylpiperidme-4-carbonyl)-6-azaspiro[2.5]octan-2-y]methyl]furo(2,3-c]pyridine-2-carboxamide]	2000 nM	
O=C(NCC1CC12CCN(C(=O)c1ccno1)CC2)c1cc2ccncc2o1 (stereo not shown) [Example 272, N-[[6-(isoxazole-5-carbonyl)-6-azaspiro[2.5]octan-2-yl]methyl]furo[2,3-c]pyridine-2-carboxamide]	2000 nM	
Cc1nc(C)c(C(=O)N2CCC3(CC2)CC3CNC(=O)c2cc3ccncc3o2)o1 (single isomer, unassigned) [Example 384, N-[[6-(2,4-dimethyloxazole-5-carbonyl)-6-azaspiro[2.5]octan-2-yl]methyl]furo[2,3-c]pyridine-2-carboxamide (single isomer)]	436 nM	
O=C(NCC1CC12CCN(C(=O)c1cnoc1C1CC1)CC2)c1cc2ccncc2o1 (stereo not shown) [Example 328, N-[[6-(5-cyclopropylisoxazole-4-carbonyl)-6-azaspiro[2.5]octan-2-yl]methyl]furo[2,3-c]pyridine-2-carboxamide]	83.4 nM	
O=C(Cc1cccc(C(F)(F)F)c1)N1CCC2(CC1)CC2CNC(=O)N1Cc2ccncc2C1 (stereo not shown) [Example 202, N-[[6-[2-[3-(trifluoromethyl]phenyl]acetyl]-6-azaspiro[2.5]octan-2-yl]methyl]-1,3-dihydropyrrolo[3,4-c]pyridine-2-carboxamide]	28.2 nM	
CN1CCN(Cc2cccc(C(=O)N3CCC4(CC3)CC4CNC(=O)c3cc4ccncc4o3)c2)CC1 (stereo not shown) [Example 88, N-[[6-[3-[(4-methylpiperazin-1-yl)methyl]benzoyl]-6-azaspiro[2.5]octan-2-yl]methyl]furo[2,3-c]pyridine-2-carboxamide]	9.77 nM	
O=C(Cc1cc(F)cc(F)c1)N1CCC2(CC1)CC2CNC(=O)N1Cc2ccncc2C1 (stereo not shown) [Example 201, N-[[6-[2-(3,5-difluorophenyl)acetyl]-6-azaspiro[2.5]octan-2-yl]methyl]-1,3-dihydropyrrolo[3,4-c]pyridine-2-carboxamide]	27.9 nM	
Cc1nc(C)c(C(=O)N2CCC3(CC2)CC3CNC(=O)c2cc3ccncc3o2)o1 (stereo not shown) [Example 385, N-[[6-(2,4-dimethyloxazole-5-carbonyl)-6-azaspiro[2.5]octan-2-yl]methyl]furo[2,3-c]pyridine-2-carboxamide]		17.1 nM
O=C(NCC1CC12CCN(C(=O)Cc1cccnc1)CC2)c1cc2ccncc2o1 (stereo not shown) [Example 39, N-[[6-[2-(3-pyridyl)acetyl]-6-azaspiro[2.5]octan-2-yl]methyl]furo[2,3-c]pyndine-2-carboxamide]	232 nM	
Cc1cc(C(=O)N2CCC3(CC2)CC3CNC(=O)c2cc3ccncc3o2)n(C(C)(C)C)n1 (stereo not shown) [Example 308, N-[[6-(2-tert-butyl-5-methyl-pyrazole-3-carbonyl)-6-azaspiro[2.5]octan-2-yl]methyl]furo[2,3-c]pyridine-2-carboxamide]	2000 nM	
O=C(NCC1CC12CCN(C(=O)c1ccc3nonc3c1)CC2)c1cc2ccncc2o1 (stereo not shown) [Example 266, N-[[6-(2,1,3-benzoxadiazole-5-carbonyl)-6-azaspiro[2.5]octan-2-yl]methyl]furo[2,3-c]pyridine-2-carboxamide]	1470 nM	
CN1CCN(c2ccc(C(=O)N3CCC4(CC3)CC4CNC(=O)N3Cc4ccncc4C3)cc2)CC1 (stereo not shown) [Example 362, N-[[6-[4-(4-methylpiperazin-1-yl)benzoyl]-6-azaspiro[2.5]octan-2-yl]methyl]-1,3-dihydropyrrolo[3,4-c]pyridine-2-carboxamide]	1.9 nM	
O=C(NCC1CC12CCN(C(=O)CC1CCN(CC(F)(F)F)CC1)CC2)c1cc2cnccc2[nH]1 (stereo not shown) [Example 40, N-[[6-[2-[1-(2,2,2-trifluoroethyl)-4-piperidyl]acetyl]-6-azaspiro[2.5]octan-2-yl]methyl]-1H-pyrrolo[3,2-c]pyridine-2-carboxamide]	24.3 nM	
NC(=O)N1CCCC(C(=O)N2CCC3(CC2)CC3CNC(=O)c2cc3ccncc3o2)C1 (stereo not shown) [Example 79, N-[[6-(1-carbamoylpiperidine-3-carbonyl)-6-azaspiro[2.5]octan-2-yl]methyl]furo[2,3-c]pyridine-2-carboxamide]	2000 nM	
CCn1cc(C(=O)N2CCC3(CC2)CC3CNC(=O)c2cc3ccncc3o2)cn1 (stereo not shown) [Example 126, N-[[6-(1-ethylpyrazole-4-carbonyl)-6-azaspiro[2.5]octan-2-yl]methyl]furo[2,3-c]pyridine-2-carboxamide]	833 nM	
CS(=O)(=O)c1ccc(C(=O)N2CCC3(CC2)CC3CNC(=O)c2cc3ccncc3o2)cc1 (stereo not shown) [Example 93, N-[[6-(4-methylsulfonylbenzoyl)-6-azaspiro[2.5]octan-2-yl]methyl]furo[2,3-c]pyridine-2-carboxamide]	878 nM	
CCCNC(=O)N1CCC2(CC1)CC2CNC(=O)c1cc2ccncc2o1 (stereo not shown) [Example 185, N-[[6-(propylcarbamoyl)-6-azaspiro[2.5]octan-2-yl]methyl]furo[2,3-c]pyridine-2-carboxamide]	2000 nM	

SMILES	IC50 (Homo sapiens, A2780, 72 h)	IC50
O=C(NCC1CC12CCN(C(=O)c1c[nH]cn1)CC2)c1cc2ccncc2o1 (stereo not shown) [Example 101, N-[[6-(1H-imidazole-4-carbonyl)-6-azaspiro[2.5]octan-2-yl]methyl]furo[2,3-c]pyridine-2-carboxamide]	2000 nM	
CCn1nc(C)cc1C(=O)N1CCC2(CC1)CC2CNC(=O)c1cc2ccncc2o1 (stereo not shown) [Example 137, N-[[6-(2-ethyl-5-methyl-pyrazole-3-carbonyl)-6-azaspiro[2.5]octan-2-yl]methyl]furo[2,3-c]pyridine-2-carboxamide]	116 nM	
Cc1ccncc1C(=O)N1CCC2(CC1)CC2CNC(=O)c1cc2ccncc2o1 (stereo not shown) [Example 120, N-[[6-(4-methylpyridine-3-carbonyl)-6-azaspiro[2.5]octan-2-yl]methyl]furo[2,3-c]pyridine-2-carboxamide]	92.8 nM	
CC(=O)N1CCN(CC(=O)N2CCC3(CC2)CC3CNC(=O)c2cc3ccncc3o2)CC1 (stereo not shown) [Example 95, N-[[6-[2-(4-acetylpiperazin-1-yl)acetyl]-6-azaspiro[2.5]octan-2-yl]methyl]furo[2,3-c]pyridine-2-carboxamide]	2000 nM	
CC1(CC(=O)N2CCC3(CC2)CC3CNC(=O)c2cc3cnccc3[nH]2)COC1 (stereo not shown) [Example 150, N-([6-[2-(3-methyloxetan-3-yl)acetyl]-6-azaspiro[2.5]octan-1-yl]methyl)-1H-pyrrolo[3,2-c]pyridine-2-carboxamide]	265 nM	
Cc1nonc1C(=O)N1CCC2(CC1)CC2CNC(=O)c1cc2ccncc2o1 (stereo not shown) [Example 118, N-[[6-(4-methyl-1,2,5-oxadiazole-3-carbonyl)-6-azaspiro[2.5]octan-2-yl]methyl]furo[2,3-c]pyridine-2-carboxamide]	1070 nM	
CC(=O)N(C)CCC(=O)N1CCC2(CC1)CC2CNC(=O)c1cc2ccncc2o1 (stereo not shown) [Example 155, N-[[6-[3-[acetyl(methyl]amino]propanoyl]-6-azaspiro[2.5]octan-2-yl]methyl]furo[2,3-c]pyridine-2-carboxamide]	2000 nM	
CCn1nc(C)c(C(=O)N2CCC3(CC2)CC3CNC(=O)c2cc3c(o2)C=NCC3)c1C (stereo not shown) [Example 222, N-[[6-(1-isopropyl-3,5-dimethyl-pyrazole-4-carbonyl)-6-azaspiro[2.5]octan-2-y]methyl]furo[2,3-c]pyridine-2-carboxamide]	11.7 nM	
O=C(NCC1CC12CCN(C(=O)c1cccc(Cn3ccnc3)c1)CC2)c1cc2ccncc2o1 (stereo not shown) [Example 252, N-[[6-[3-(imidazol-1-ylmethyl)benzoyl]-6-azaspiro[2.5]octan-2-yl]methyl]furo[2,3-c]pyridine-2-carboxamide]	344 nM	
CC(C)(C)OC(=O)N1Cc2[nH]nc(C(=O)N3CCC4(CC3)CC4CNC(=O)c3cc4ccncc4o3)c2C1 (stereo not shown) [Example 306, tert-butyl 3-[2-[(furo[2,3-c]pyridine-2-carbonylamino)methyl]-6-azaspiro[2.5]octane-6-carbonyl]-4,6-dihydro-1H-pyrrolo[3,4-c]pyrazole-5-carboxylate]	38.8 nM	
Cc1ncoc1C(=O)N1CCC2(CC1)CC2CNC(=O)c1cc2ccncc2o1 (stereo not shown) [Example 331, N-[[6-(4-methyloxazole-5-carbonyl)-6-azaspiro[2.5]octan-2-yl]methyl]furo[2,3-c]pyridine-2-carboxamide]	7.04 nM	
CC1(C)CC1C(=O)N1CCC2(CC1)CC2CNC(=O)c1cc2cnccc2[nH]1 (stereo not shown) [Example 348, N-[[6-(2,2-dimethylcyclopropanecarbonyl)-6-azaspiro[2.5]octan-2-yl]methyl]-1H-pyrrolo[3,2-c]pyridine-2-carboxamide]		42.6 nM
CC1(O)CC(CC(=O)N2CCC3(CC2)CC3CNC(=O)c2cc3ccncc3o2)C1 (stereo not shown) [Example 174, N-([6-[2-(3-hydroxy-3methylcyclobutyl)acetyl]-6-azaspiro[2.5]octan-1-yl]methyl)furo[2,3-c]pyridine-2-carboxamide]	197 nM	
O=C(CCN1CCOCC1)N1CCC2(CC1)CC2CNC(=O)N1Cc2ccncc2C1 (stereo not shown) [Example 229, N-[[6-(3-morpholinopropanoyl)-6-azaspiro[2.5]octan-2-yl)methyl]-1,3-dihydropyrrolo[3,4-c]pyridine-2-carboxamide]	18.4 nM	
CC1(OC(=O)N2CCC3(CC2)CC3CNC(=O)N2Cc3ccncc3C2)CCOC1 (stereo not shown) [Example 375, (3-methyltetrahydrofuran-3-yl) 2-[(1,3-dihydropyrrolo[3,4-c]pyridine-2-carbonylamino)methyl]-6-azaspiro[2.5]octane-6-carboxylate]	1.11 nM	
O=C(NCC1CC12CCN(C(=O)c1ccccc1)CC2)c1cc2ccncc2o1 (stereo not shown) [Example 411, N-((6-benzoyl-6-azaspiro[2.5]octan-2-yl)methyl]furo[2,3-c]pyridine-2-carboxamide]	2000 nM	
CN1CCN(Cc2cccc(C(=O)N3CCC4(CC3)CC4CNC(=O)c3cc4cnccc4[nH]3)c2)CC1 (stereo not shown) [Example 344, N-[[6-[3-[(4-methylpiperazin-1-yl)methyl]benzoyl]-6-azaspiro[2.5]octan-2-yl]methyl]-1H-pyrrolo[3,2-c]pyridine-2-carboxamide]	72 nM	
